Laboratory results published in patent publication US8530663B2, “1-(2-phenoxymethylheteroaryl)piperidine and piperazine compounds” (Theravance, Inc., priority 2010, dated 2013).
Marks after values point to notes of the source that are not given here.

Key:
hSERT [1] = target: T1, hSERT (Homo sapiens, UniProt P31645); assay: hSERT membrane radioligand binding assay (3H-citalopram); conditions: hSERT membranes, 1.0 nM 3H-citalopram; for Ki: read-out: SERT pKi (converted)
T1 construct: expressed in transfected cells; host or cells: HEK-293
T1 sequence (P31645 whole entry): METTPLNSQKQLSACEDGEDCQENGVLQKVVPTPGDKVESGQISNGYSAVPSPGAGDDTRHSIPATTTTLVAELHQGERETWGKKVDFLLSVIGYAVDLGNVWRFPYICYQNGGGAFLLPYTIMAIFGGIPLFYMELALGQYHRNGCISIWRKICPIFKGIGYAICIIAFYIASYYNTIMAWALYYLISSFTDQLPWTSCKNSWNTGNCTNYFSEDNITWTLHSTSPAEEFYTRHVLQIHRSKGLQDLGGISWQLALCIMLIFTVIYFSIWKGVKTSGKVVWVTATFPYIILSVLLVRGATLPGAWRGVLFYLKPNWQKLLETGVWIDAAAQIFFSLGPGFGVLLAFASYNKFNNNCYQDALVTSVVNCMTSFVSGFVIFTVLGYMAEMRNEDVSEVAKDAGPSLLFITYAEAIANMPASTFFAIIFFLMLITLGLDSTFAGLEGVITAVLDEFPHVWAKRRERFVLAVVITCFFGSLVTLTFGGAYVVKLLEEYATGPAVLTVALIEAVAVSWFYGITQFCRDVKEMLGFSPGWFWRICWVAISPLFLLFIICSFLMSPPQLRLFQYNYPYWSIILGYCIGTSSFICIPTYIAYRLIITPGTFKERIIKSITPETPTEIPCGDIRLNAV
Method: (§1) Membrane radioligand binding assays were used to measure inhibition of labeled ligand (^3H-citalopram or ^3H-nisoxetine or ^3H-WIN35428) binding to membranes prepared from cells expressing the respective human recombinant transporter (hSERT or hNET or hDAT) in order to determine the pKi values of test compounds at the transporters.
(§2) Recombinant human embryonic kidney (HEK-293) derived cell lines stably transfected with hSERT or hNET, respectively, were grown in DMEM medium supplemented with 10% dialyzed FBS (for hSERT) or FBS (for hNET), 100 μg/ml penicillin, 100 μg/ml streptomycin, 2 mM L-glutamine and 250 μg/ml of the aminoglycoside antibiotic G418, in a 5% CO2 humidified incubator at 37° C. When cultures reached 80% confluence, the cells were washed thoroughly in PBS (without Ca^2+ and Mg^2+) and lifted with 5 mM EDTA in PBS. Cells were pelleted by centrifugation, resuspended in lysis buffer (10 mM Tris-HCl, pH7.5 containing 1 mM EDTA), homogenized, pelleted by centrifugation, then resuspended in 50 mM Tris-HCl, pH 7.5 and 10% sucrose at 4° C. Protein concentration of the membrane suspension was determined using a Bio-Rad Bradford Protein Assay kit. Membranes were snap frozen and stored at −80° C. Chinese hamster ovary membranes expressing hDAT (CHO-DAT) were purchased from PerkinElmer and stored at −80° C.
(§3) Binding assays were performed in a 96-well assay plate in a total volume of 200 μL assay buffer (50 mM Tris-HCl, 120 mM NaCl, 5 mM KCl, pH 7.4) with 0.5, 1, and 3 μg membrane protein, for SERT, NET and DAT, respectively.
(§4) Stock solutions (10 mM in DMSO) of test compound were prepared and serial dilutions made using Dilution Buffer (50 mM Tris-HCl, 120 mM NaCl, 5 mM KCl, pH 7.4, 0.1% BSA, 400 μM ascorbic acid).
(§5) Following a 60 minute incubation at 22° C. (or a period sufficient to reach equilibrium), the membranes were harvested by rapid filtration over a 96-well UniFilter GF/B plate, pretreated with 0.3% polyethyleneimine, and washed 6 times with 300 μl wash buffer (50 mM Tris-HCl, 0.9% NaCl, pH 7.5 at 4° C.). Plates were dried overnight at room temperature, ˜45 μl of MicroScint™-20 (Perkin Elmer) added and bound radioactivity quantitated via liquid scintillation spectroscopy. Inhibition curves and saturation isotherms were analyzed using GraphPad Prism Software package (GraphPad Software, Inc., San Diego, Calif.). IC50 values were generated from concentration response curves using the Sigmoidal Dose Response (variable slope) algorithm in Prism GraphPad. Kd and Bmax values for the radioligand were generated from saturation isotherms using the Saturation Binding Global Fit algorithm in Prism GraphPad. pKi (negative decadic logarithm of Ki) values for test compounds were calculated from the best-fit IC50 values, and the Kd value of the radioligand, using the Cheng-Prusoff equation (Cheng & Prusoff (1973) Biochem. Pharmacol. 22(23):3099-3108): Ki=IC50/(1+[L]/Kd), where [L]=concentration radioligand.

hNET [2] = target: T2, hNET (Homo sapiens, UniProt P23975); assay: hNET membrane radioligand binding assay (3H-nisoxetine); conditions: hNET membranes, 1.0 nM 3H-nisoxetine; for Ki: read-out: NET pKi (converted)
T2 construct: expressed in transfected cells; host or cells: HEK-293
T2 sequence (P23975 whole entry): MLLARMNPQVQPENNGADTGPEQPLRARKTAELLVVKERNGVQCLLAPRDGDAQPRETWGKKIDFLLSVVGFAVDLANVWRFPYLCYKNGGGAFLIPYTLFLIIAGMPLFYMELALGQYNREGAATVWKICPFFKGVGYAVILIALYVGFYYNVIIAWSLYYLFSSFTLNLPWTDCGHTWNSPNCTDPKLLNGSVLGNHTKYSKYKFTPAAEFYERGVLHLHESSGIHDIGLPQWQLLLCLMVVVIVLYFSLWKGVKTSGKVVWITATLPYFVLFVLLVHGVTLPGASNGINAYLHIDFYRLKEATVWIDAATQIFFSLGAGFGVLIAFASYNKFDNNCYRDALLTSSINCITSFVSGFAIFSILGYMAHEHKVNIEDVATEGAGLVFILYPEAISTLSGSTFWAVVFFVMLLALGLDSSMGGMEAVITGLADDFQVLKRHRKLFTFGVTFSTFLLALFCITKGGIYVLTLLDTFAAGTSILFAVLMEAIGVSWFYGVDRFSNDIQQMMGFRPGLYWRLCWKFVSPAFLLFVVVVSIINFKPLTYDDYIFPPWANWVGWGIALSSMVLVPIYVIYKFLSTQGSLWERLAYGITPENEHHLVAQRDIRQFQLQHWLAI
Method: as §1, §2, §3, §4, §5

hSERT [3] = target: T1, hSERT; assay: fluorescence-based serotonin reuptake assay (Tsuruda et al. 2010; data with asterisk); assay type: cell-based; conditions: serotonin reuptake inhibition, fluorescence-based assay (data indicated by an asterisk); for IC50: read-out: SERT pIC50 (converted)
hNET [4] = target: T2, hNET; assay: fluorescence-based norepinephrine reuptake assay (Tsuruda et al. 2010; data with asterisk); assay type: cell-based; conditions: norepinephrine reuptake inhibition, fluorescence-based assay (data indicated by an asterisk); for IC50: read-out: NET pIC50 (converted)

SERT pKi (hSERT [1]) | NET pKi (hNET [2]) | Compound | other results
– | – | Fc1cc(F)c(OCc2ncccc2C2CCNCC2)c(F)c1 [Example 1, 2-(2,4,6-Trifluorophenoxymethyl)-1′,2′,3′,4′,5′,6′-hexahydro[3,4]bipyridinyl] | Ki (hSERT [1]): ≤ 0.1 µM; Ki (hNET [2]): ≤ 0.1 µM
≧5.0 | ≧6.0 | c1ccc(OCc2ncccc2C2CCNCC2)cc1 [Example 2-1] | –
≧6.0 | ≧7.0 | Fc1ccccc1OCc1ncccc1C1CCNCC1 [Example 2-2] | –
≧7.0 | ≧5.0 | Clc1cccc(OCc2ncccc2C2CCNCC2)c1 [Example 2-3] | –
≧6.0 | ≧7.0 | Fc1cccc(F)c1OCc1ncccc1C1CCNCC1 [Example 2-4] | –
≧7.0 | ≧7.0 | Fc1cccc(Cl)c1OCc1ncccc1C1CCNCC1 [Example 2-5] | –
≧7.0 | ≧7.0 | Clc1cccc(Cl)c1OCc1ncccc1C1CCNCC1 [Example 2-6] | –
≧7.0 | ≧6.0 | Fc1ccc(F)c(OCc2ncccc2C2CCNCC2)c1F [Example 2-7] | –
≧7.0 | ≧6.0 | Fc1cc(Cl)cc(F)c1OCc1ncccc1C1CCNCC1 [Example 2-8] | –
≧7.0 | ≧6.0 | Fc1ccc(F)c(OCc2ncccc2C2CCNCC2)c1Cl [Example 2-9] | SERT pIC50 (hSERT [3]): ≧7.0*; NET pIC50 (hNET [4]): ≧7.0*
– | – | Fc1cccc(F)c1OCc1cnccc1C1CCNCC1 [Example 5, 3′-(2,6-Difluorophenoxymethyl)-1,2,3,4,5,6-hexahydro[4,4′]bipyridinyl] | Ki (hSERT [1]): ≤ 0.1 µM; Ki (hNET [2]): ≤ 0.1 µM
≧6.0 | ≧5.0 | c1ccc(OCc2cnccc2C2CCNCC2)cc1 [Example 6-1] | –
≧7.0 | ≧6.0 | Fc1ccccc1OCc1cnccc1C1CCNCC1 [Example 6-2] | –
≧7.0 | ≧5.0 | Clc1cccc(OCc2cnccc2C2CCNCC2)c1 [Example 6-3] | –
≧7.0 | ≧7.0 | Fc1cccc(Cl)c1OCc1cnccc1C1CCNCC1 [Example 6-4] | –
≧7.0 | ≧7.0 | Clc1cccc(Cl)c1OCc1cnccc1C1CCNCC1 [Example 6-5] | –
≧7.0 | ≧6.0 | Fc1ccc(F)c(OCc2cnccc2C2CCNCC2)c1F [Example 6-6] | –
≧7.0 | ≧7.0 | Fc1cc(F)c(OCc2cnccc2C2CCNCC2)c(F)c1 [Example 6-7] | –
≧7.0 | ≧6.0 | Fc1cc(Cl)cc(F)c1OCc1cnccc1C1CCNCC1 [Example 6-8] | –
≧7.0 | ≧7.0 | Fc1ccc(F)c(OCc2cnccc2C2CCNCC2)c1Cl [Example 6-9] | –
≧6.0 | ≧6.0 | c1ccc(OCc2ccncc2C2CCNCC2)cc1 [Example 10-1] | –
≧7.0 | ≧7.0 | Fc1ccccc1OCc1ccncc1C1CCNCC1 [Example 10-2] | –
≧7.0 | ≧7.0 | Fc1cccc(F)c1OCc1ccncc1C1CCNCC1 [Example 10-3] | –
≧7.0 | ≧7.0 | Clc1cccc(Cl)c1OCc1ccncc1C1CCNCC1 [Example 10-5] | –
≧7.0 | ≧6.0 | Clc1cccc(OCc2ccncc2C2CCNCC2)c1 [Example 10-6] | –
≧7.0 | ≧7.0 | Fc1ccc(F)c(OCc2ccncc2C2CCNCC2)c1F [Example 10-7] | –
≧7.0 | ≧7.0 | Fc1cc(Cl)cc(F)c1OCc1ccncc1C1CCNCC1 [Example 10-8] | –

SERT pKi (hSERT [1]) | NET pKi (hNET [2]) | Compound | other results
≧7.0 | ≧7.0 | Fc1ccc(F)c(OCc2ccncc2C2CCNCC2)c1Cl [Example 10-9] | –
≧6.0 | ≧6.0 | c1ccc(OCc2cccnc2C2CCNCC2)cc1 [Example 14-1] | –
≧6.0 | ≧7.0 | Fc1ccccc1OCc1cccnc1C1CCNCC1 [Example 14-2] | –
≧7.0 | ≧5.0 | Clc1cccc(OCc2cccnc2C2CCNCC2)c1 [Example 14-3] | –
≧6.0 | ≧7.0 | Fc1cccc(F)c1OCc1cccnc1C1CCNCC1 [Example 14-4] | –
≧7.0 | ≧7.0 | Fc1cccc(Cl)c1OCc1cccnc1C1CCNCC1 [Example 14-5] | –
≧7.0 | ≧7.0 | Clc1cccc(Cl)c1OCc1cccnc1C1CCNCC1 [Example 14-6] | –
≧7.0 | ≧7.0 | Fc1ccc(F)c(OCc2cccnc2C2CCNCC2)c1F [Example 14-7] | –
≧7.0 | ≧7.0 | Fc1cc(Cl)cc(F)c1OCc1cccnc1C1CCNCC1 [Example 14-8] | –
– | – | c1ccc(OCc2occc2C2CCNCC2)cc1 [Example 17, 4-(2-Phenoxymethylfuran-3-yl)piperidine] | IC50 (hSERT [3]): ≤ 0.1 µM; IC50 (hNET [4]): ≤ 0.1 µM
– | – | Clc1cccc(Cl)c1OCc1occc1C1CCNCC1 [Example 18-1] | SERT pIC50 (hSERT [3]): ≧7.0*; NET pIC50 (hNET [4]): ≧4.5*
– | – | Clc1cccc(OCc2occc2C2CCNCC2)c1 [Example 18-2] | SERT pIC50 (hSERT [3]): ≧7.0*; NET pIC50 (hNET [4]): ≧7.0*
– | – | Fc1cccc(F)c1OCc1occc1C1CCNCC1 [Example 18-3] | SERT pIC50 (hSERT [3]): ≧6.0*; NET pIC50 (hNET [4]): ≧5.0*
– | – | Clc1cccc(OCc2ccoc2C2CCNCC2)c1 [Example 21, 4-[3-(3-Chlorophenoxymethyl)furan-2-yl]piperidine] | IC50 (hSERT [3]): ≤ 0.1 µM; IC50 (hNET [4]): ≤ 0.1 µM
– | – | c1ccc(OCc2ccoc2C2CCNCC2)cc1 [Example 22-1] | SERT pIC50 (hSERT [3]): ≧6.0*; NET pIC50 (hNET [4]): ≧7.0*
– | – | Fc1cccc(F)c1OCc1ccoc1C1CCNCC1 [Example 22-2] | SERT pIC50 (hSERT [3]): ≧5.0*; NET pIC50 (hNET [4]): ≧6.0*
≧7.0 | ≧5.0 | Clc1cccc(Cl)c1OCc1sccc1C1CCNCC1 [Example 25-1] | –
≧6.0 | ≧6.0 | Fc1cccc(F)c1OCc1sccc1C1CCNCC1 [Example 25-2] | –
≧7.0 | ≧5.0 | Fc1cccc(Cl)c1OCc1sccc1C1CCNCC1 [Example 25-3] | –
≧6.0 | ≧6.0 | Fc1ccc(F)c(OCc2sccc2C2CCNCC2)c1F [Example 25-4] | –
≧7.0 | ≧7.0 | Fc1ccccc1OCc1cscc1C1CCNCC1 [Example 28-1] | –
≧7.0 | ≧6.0 | Clc1cccc(OCc2cscc2C2CCNCC2)c1 [Example 28-2] | –
≧7.0 | ≧7.0 | Fc1cc(Cl)cc(F)c1OCc1cscc1C1CCNCC1 [Example 28-4] | –
≧7.0 | ≧7.0 | Fc1ccc(F)c(OCc2cscc2C2CCNCC2)c1Cl [Example 28-5] | –
– | – | c1ccc(OCc2ccsc2C2CCNCC2)cc1 [Example 30, 4-(3-Phenoxymethylthiophen-2-yl)piperidine] | Ki (hSERT [1]): ≤ 0.1 µM; Ki (hNET [2]): ≤ 0.1 µM
≧6.0 | ≧7.0 | Fc1ccccc1OCc1ccsc1C1CCNCC1 [Example 31-1] | –
≧7.0 | ≧7.0 | Fc1cc(Cl)cc(F)c1OCc1ccsc1C1CCNCC1 [Example 31-4] | –
